Laboratory results: patent US11072581B2, “N-acyl-arylsulfonamide derivatives as aminoacyl-tRNA synthetase inhibitors” (Oxford Drug Design Limited, priority 2015, dated 2021)
Structures can show the parent of a compound that is named as a salt.

Tests used:
Format in all cases: biochemical
Conditions in all cases: i.a. = inactive at a concentration below 50 uM
[1] = target: T1, EcoVRS (valyl-tRNA synthetase from Escherichia coli) (Escherichia coli, UniProt P07118); assay: aaRS aminoacylation assay (ATP consumption), EcoVRS
T1 construct: made in house; host or cells: Escherichia coli M15
Protocol: (§1) The compounds have been tested for antibacterial activity in vitro as aminoacyl-tRNA synthetases (aaRS) inhibitors following the following process.
(§2) Leucyl-, valyl- and isoleucyl-tRNA synthetases (LRS, VRS and IRS, respectively) from Escherichia coli (Eco) and Staphylococcus aureus (Sau).
(§3) Escherichia coli M15 cells transformed with plasmid pQE-60, or pQE-70, containing the open-reading frame sequence of one targeted aaRS were induced with 1 mM IPTG (Isopropyl β-D-1-thiogalactopyranoside) for 3 h at 37° C. Bacterial cells were harvested and lysed with 20 mM NaH2PO4 (pH 8.0), 200 mM NaCl, 10 mM imidazole and protease inhibitor cocktail (Roche). Pathogenic aaRS was purified by nickel affinity standard chromatography. Protein concentration was determined by spectrophotometry.
(§4) tRNA^Leu, tRNA^Val and tRNA^Ile from E. coli and S. aureus were transcribed in vitro for 4 h at 37° C. using T7 RNA polymerase. Transcription reaction contained 40 mM Tris-HCl (pH 8.0), 22 mM MgCl2, 1 mM spermidine, 5 mM DTT, 0.01% Triton X-100, 4 mM GTP, 4 mM ATP, 4 mM UTP, 4 mM CTP, 16 mM GMP, […] T7 RNA polymerase and 150 μg BstNI digested plasmid. Once finished, the reaction was applied on a 6% polyacrylamide-8 M urea denaturing gel to purify the transcribed tRNA and discard any impurities. Purified tRNA was quantified with Nanodrop 2000 (Thermo Scientific).
(§5) The aminoacylation reaction catalyzed by aminoacyl-tRNA synthetases (aaRS) takes place in two steps. In the first step, aaRS activates its cognate amino acid with ATP; and in the second step the activated amino acid is loaded to its corresponding tRNA. This reaction can be summarized as follows: ARS+aa+ATP=ARS-aa-AMP+PPi ARS-aa-AMP+tRNA=aa-tRNA+AMP+ARS [2] (ARS, Aminoacyl-tRNA synthetase; aa, amino acid; ARS-aa-AMP, enzyme-bound to aminoacyl-adenylate; aa-tRNA, aminoacyl-tRNA).
(§6) The activity of the pathogenic aaRSs was monitored by measuring the ATP consumption rate, since this consumption is directly proportional to the activity of the aaRS. If the tested compound, at a single point concentration of 50 μM, is inhibiting the aminoacylation reaction, there is a decrease in the ATP consumption, compared to the control reaction without compound, allowing the calculation of an inhibition ratio.
(§7) When the inhibition ratio for a given compound was above 80%, IC50 determination was performed with the same enzymatic assay (using the commercial kit Kinase RR from BioThema AB, Sweden) in the presence of serial dilutions of inhibitor. Known inhibitors of LRS, VRS or IRS were used as a positive control of the assay. The IC50 was calculated based on nonlinear regression analysis.

[2] = target: T2, SauIRS (isoleucyl-tRNA synthetase from Staphylococcus aureus) (Staphylococcus aureus, UniProt P41972); assay: aaRS aminoacylation assay (ATP consumption), SauIRS
T2 construct: made in house; host or cells: Escherichia coli M15
T2 sequence (P41972 1-917): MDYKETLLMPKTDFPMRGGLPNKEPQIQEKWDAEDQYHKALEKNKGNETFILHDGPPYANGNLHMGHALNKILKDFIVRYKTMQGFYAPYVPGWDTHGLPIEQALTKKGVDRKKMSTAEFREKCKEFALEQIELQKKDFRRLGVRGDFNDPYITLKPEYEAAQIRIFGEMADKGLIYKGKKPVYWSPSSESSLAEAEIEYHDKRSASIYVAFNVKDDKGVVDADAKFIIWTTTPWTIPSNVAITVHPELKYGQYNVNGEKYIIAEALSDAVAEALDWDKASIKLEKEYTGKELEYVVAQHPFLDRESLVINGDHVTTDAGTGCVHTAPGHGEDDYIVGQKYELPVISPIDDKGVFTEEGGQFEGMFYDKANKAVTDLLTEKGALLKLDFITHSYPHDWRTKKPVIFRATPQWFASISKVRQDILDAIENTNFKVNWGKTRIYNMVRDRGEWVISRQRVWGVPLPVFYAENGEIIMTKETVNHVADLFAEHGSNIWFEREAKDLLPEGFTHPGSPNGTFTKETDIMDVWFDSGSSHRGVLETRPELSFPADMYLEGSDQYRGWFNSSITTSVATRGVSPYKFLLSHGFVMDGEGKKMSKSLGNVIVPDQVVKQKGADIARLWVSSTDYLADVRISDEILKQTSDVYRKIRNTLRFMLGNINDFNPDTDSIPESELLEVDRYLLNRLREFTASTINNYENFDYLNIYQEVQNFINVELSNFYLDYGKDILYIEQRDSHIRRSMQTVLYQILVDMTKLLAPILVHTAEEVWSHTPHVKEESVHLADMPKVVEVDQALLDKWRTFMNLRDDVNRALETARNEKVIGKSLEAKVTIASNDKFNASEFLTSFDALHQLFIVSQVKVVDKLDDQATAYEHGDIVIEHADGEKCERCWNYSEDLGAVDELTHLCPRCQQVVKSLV
Protocol: as §1, §2, §3, §4, §5, §6, §7

[3] = target: T3, SauVRS (valyl-tRNA synthetase from Staphylococcus aureus) (Staphylococcus aureus, UniProt Q2FXR8); assay: aaRS aminoacylation assay (ATP consumption), SauVRS
T3 construct: made in house; host or cells: Escherichia coli M15
T3 sequence (Q2FXR8 1-876): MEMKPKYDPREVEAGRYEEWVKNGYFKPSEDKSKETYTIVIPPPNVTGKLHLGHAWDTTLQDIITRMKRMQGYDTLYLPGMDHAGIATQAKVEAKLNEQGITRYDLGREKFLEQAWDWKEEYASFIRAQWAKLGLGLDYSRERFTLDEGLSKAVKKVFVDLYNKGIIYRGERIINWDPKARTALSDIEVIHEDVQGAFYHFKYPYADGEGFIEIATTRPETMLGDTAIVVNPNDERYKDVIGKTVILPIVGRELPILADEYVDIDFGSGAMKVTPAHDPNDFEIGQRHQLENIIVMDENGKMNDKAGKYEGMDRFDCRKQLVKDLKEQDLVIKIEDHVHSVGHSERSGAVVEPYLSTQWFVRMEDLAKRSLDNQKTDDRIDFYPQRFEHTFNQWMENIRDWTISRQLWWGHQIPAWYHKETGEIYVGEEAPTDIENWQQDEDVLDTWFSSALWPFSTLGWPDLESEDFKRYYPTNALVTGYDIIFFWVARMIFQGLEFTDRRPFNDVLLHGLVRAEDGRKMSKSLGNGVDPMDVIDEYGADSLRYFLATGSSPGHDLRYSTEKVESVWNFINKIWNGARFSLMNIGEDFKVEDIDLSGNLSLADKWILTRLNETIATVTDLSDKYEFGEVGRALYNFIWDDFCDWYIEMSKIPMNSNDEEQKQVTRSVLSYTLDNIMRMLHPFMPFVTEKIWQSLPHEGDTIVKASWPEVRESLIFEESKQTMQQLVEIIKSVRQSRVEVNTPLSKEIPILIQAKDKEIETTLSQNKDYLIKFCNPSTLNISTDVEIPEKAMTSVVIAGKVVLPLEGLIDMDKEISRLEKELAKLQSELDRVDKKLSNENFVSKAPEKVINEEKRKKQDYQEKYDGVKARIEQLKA
Protocol: as §1, §2, §3, §4, §5, §6, §7

T1 sequence (P07118 whole entry): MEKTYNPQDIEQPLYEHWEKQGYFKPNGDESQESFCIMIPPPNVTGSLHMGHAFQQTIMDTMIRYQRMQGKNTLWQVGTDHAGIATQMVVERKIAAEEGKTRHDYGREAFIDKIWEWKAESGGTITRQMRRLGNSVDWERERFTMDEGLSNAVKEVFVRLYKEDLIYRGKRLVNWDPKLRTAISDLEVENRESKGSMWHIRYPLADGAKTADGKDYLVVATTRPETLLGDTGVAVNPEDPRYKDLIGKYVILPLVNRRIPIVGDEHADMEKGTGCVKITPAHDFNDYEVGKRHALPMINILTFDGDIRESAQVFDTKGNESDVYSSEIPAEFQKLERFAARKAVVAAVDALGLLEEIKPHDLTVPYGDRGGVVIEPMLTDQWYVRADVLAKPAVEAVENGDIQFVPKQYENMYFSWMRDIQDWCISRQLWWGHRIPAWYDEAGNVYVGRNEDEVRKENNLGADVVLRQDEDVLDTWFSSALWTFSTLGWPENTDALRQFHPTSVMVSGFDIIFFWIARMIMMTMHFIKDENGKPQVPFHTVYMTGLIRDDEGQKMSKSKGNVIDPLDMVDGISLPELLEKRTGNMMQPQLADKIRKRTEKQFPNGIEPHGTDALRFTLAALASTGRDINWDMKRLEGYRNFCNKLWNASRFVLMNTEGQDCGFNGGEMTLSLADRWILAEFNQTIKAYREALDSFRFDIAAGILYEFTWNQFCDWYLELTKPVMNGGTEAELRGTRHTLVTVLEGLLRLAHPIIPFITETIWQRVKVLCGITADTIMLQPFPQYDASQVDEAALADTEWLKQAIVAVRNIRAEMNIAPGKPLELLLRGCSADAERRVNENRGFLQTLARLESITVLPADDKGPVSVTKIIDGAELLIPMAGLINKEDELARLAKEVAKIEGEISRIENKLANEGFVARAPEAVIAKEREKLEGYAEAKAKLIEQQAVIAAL

Row | Structure (SMILES) | IC50 EcoVRS [1] | IC50 SauIRS [2] | IC50 SauVRS [3]
1 | CC(C)C[C@H](N)C(=O)NS(=O)(=O)c1cccc2ccncc12 [Compound 5.21] | i.a | i.a | i.a
2 | CC(C)C[C@H](N)C(=O)NS(=O)(=O)c1ccc(Br)c2ccncc12 [Compound 5.22, trifluoroacetate] | i.a | i.a | i.a
3 | CC(C)C[C@H](N)C(=O)NS(=O)(=O)c1cccc2cc(C(N)=O)ncc12 [Compound 5.24, 8-(N-(L-Leucyl)sulfamoyl)isoquinoline-3-carboxamide] | i.a | i.a | i.a
4 | CC(C)C[C@H](N)C(=O)NS(=O)(=O)c1cccc2c1OCCC2 [Compound 5.25] | i.a | i.a | i.a
5 | CC(C)C[C@H](N)C(=O)NS(=O)(=O)c1cccc2c1CNCC2 [Compound 5.26, (S)-2-amino-4-methyl-N-((1,2,3,4-tetrahydroisoquinolin-8-yl)sulfonyl) pentanamide trifluoroacetate] | i.a | i.a | i.a
6 | CNc1cc(-c2cccc(S(=O)(=O)NC(=O)[C@@H](N)CC(C)C)c2)nc(N)n1 [Compound 5.27] | i.a | i.a | i.a
7 | CC(C)C[C@H](N)C(=O)NS(=O)(=O)c1cccc(-c2cc(N(C)C)nc(N)n2)c1 [Compound 5.28] | i.a | i.a | i.a
8 | CSc1cc(-c2cccc(S(=O)(=O)NC(=O)[C@@H](N)CC(C)C)c2)nc(N)n1 [Compound 5.29] | i.a | i.a | i.a
9 | Cc1cc(-c2cccc(S(=O)(=O)NC(=O)[C@@H](N)CC3CC3)c2)nc(N)n1 [Compound 5.30] | i.a | i.a | i.a
10 | Cc1cc(-c2cccc(S(=O)(=O)NC(=O)[C@@H](N)CC3CCC3)c2)nc(N)n1 [Compound 5.31] | i.a | i.a | i.a
11 | Cc1cc(-c2cccc(S(=O)(=O)NC(=O)[C@@H](N)C3CC3)c2)nc(N)n1 [Compound 5.33] | i.a | i.a | i.a
12 | Cc1cc(-c2cccc(S(=O)(=O)NC(=O)[C@@H](N)CC3CCCCC3)c2)nc(N)n1 [Compound 5.34] | i.a | i.a | i.a
13 | Cc1cc(-c2cccc(S(=O)(=O)NC(=O)[C@@H](N)CC(C)C)c2)nc(N)n1 [Compound 5.35, (S)-2-amino-N-((3-(2-amino-6-methylpyrimidin-4-yl)phenyl)sulfonyl)-4-methylpentanamide] | i.a. | i.a. | i.a.
14 | COc1cc(-c2cccc(S(=O)(=O)NC(=O)[C@@H](N)CC(C)C)c2)nc(N)n1 [Compound 5.36] | i.a. | i.a. | i.a.
15 | CC(C)C[C@H](N)C(=O)NS(=O)(=O)c1cccc(-c2ccnc(N)n2)c1 [Compound 5.37] | i.a. | i.a. | i.a.
16 | CC(C)C[C@H](N)C(=O)NS(=O)(=O)c1cccc(-c2nc(N)nc3nc[nH]c23)c1 [Compound 5.38] | i.a. | i.a. | i.a.
17 | Cc1cc(-c2cccc(S(=O)(=O)NC(=O)[C@@H](N)CC(C)C)c2)ncn1 [Compound 5.39] | i.a. | i.a. | i.a.
18 | CC[C@H](C)[C@H](N)C(=O)NS(=O)(=O)c1cccc(-c2cc(C)nc(N)n2)c1 [Compound 5.40] | i.a. | i.a. | i.a.
19 | CC(C)C[C@H](N)C(=O)NS(=O)(=O)c1cccc(-c2cc(-c3ccccc3)nc(N)n2)c1 [Compound 5.41] | i.a. | i.a. | i.a.
20 | CC(C)C[C@H](N)C(=O)NS(=O)(=O)c1cccc(-c2ccncc2)c1 [Compound 5.42] | i.a. | i.a. | i.a.
21 | CC(C)C[C@H](N)C(=O)NS(=O)(=O)c1cccc(-c2ccnc(N)c2)c1 [Compound 5.43] | i.a. | i.a. | i.a.
